Measurements from publication PMC4786873, “Spacer-free BODIPY fluorogens in antimicrobial peptides for direct imaging of fungal infection in human tissue” (Nature Communications, 2016).
“Also recorded” adds a separate entry of the source. Like-named read-outs stand apart in the source and are kept apart here. Starred links: 1 amine or outer side, 2 acyl side, 3 side chain; linkers in the order of their positions; H or OH if unused. Non-standard residues stand in square brackets, D forms with d. Residues, ends and D or L forms follow the SMILES beside them. No end group written: not given here. X1 = CC1=CC(C)=[N+]2C1=C(c1cccc(-c3[nH]c4ccccc4c3C[C@H](N[*:1])C(=O)[*:2])c1)c1c(C)cc(C)n1[B-]2(F)F

Experiments:
[1] = tested on: Escherichia coli (ATCC 25922); test: In vitro antimicrobial activity (bacterial cell viability, OD600); assay type: cell-based; settings: 16 h incubation with peptide at its respective IC50 concentration (A. fumigatus), OD600 nm, n=3
Method: (§1) P. aeruginosa (ATCC 47085), K. pneumoniae (ATCC BAA1706) and E. coli (ATCC 25922) were grown on Lysogeny Broth (LB) agar plates and stored at 4 °C. For assays, a single colony of bacteria was taken into 10 mL liquid broth and incubated at 37 °C for 16 h. Cultures were centrifuged at 4,000 r.p.m. for 5 min and the pellet was re-suspended in 1 ml of fresh PBS and washed three times. Cultures were reconstituted to 1.0 OD595 nm, then diluted 1:1,000 and incubated with compounds 4–8 at the indicated concentrations (that is, concentrations matching the IC50 values in A. fumigatus for all compounds, except for compounds 3 and 5a where a top concentration of 20 μM was used). Cell viability was monitored over 16 h by measuring OD600 nm in a spectrophotometer. Data is represented as % of cell viability as means from at least two independent experiments with n=3.

[2] = tested on: Klebsiella pneumoniae (ATCC BAA1706); test: as above; assay type: cell-based; settings: 16 h incubation with peptide at its respective IC50 concentration (A. fumigatus), OD600 nm, n=3
Method: as §1

[3] = tested on: Pseudomonas aeruginosa (ATCC 47085); test: as above; assay type: cell-based; settings: 16 h incubation with peptide at its respective IC50 concentration (A. fumigatus), OD600 nm, n=3
Method: as §1

[4] = tested on: human lung A549 epithelial cells; test: MTT cell viability assay; assay type: cell-based; settings: MTT, 0, 1.25, 2.5, 5 and 10 μM, 4 h at 37 °C, absorbance 570 nm, means ± s.d., n=4
Method: Cell viability was determ ined with a TACS® MTT Cell Proliferation assa y (Trevigen) according to the m anufacturer’s instructions. Briefly, hum an lung A549 epithelial cells were plated on 96-well plates the day before the experim ent, reaching 90- 95% confluence on the day of the experim ent. T he peptide 8 was added to the cells at different concentrations (0, 1.25, 2.5, 5 and 10 µM) and incubated at 37 °C for 4 h. After 4 h, cells were washed, treated according to the m anufacturer’s instructions and their absorbance values (570 nm) were m easured in a Syner gy HT spectrophotom eter (Biotek ). Cell viabilit y data was norm alised to the proliferation of cells without addition of the peptide 8.
Supplementary Figure 17. Cell proliferation assays. Viabilit y of hum an lung A549 epithelial cells after incubation with different concentrations of the peptide 8 . D ata r epresented as m eans ± s.d. (n=4).
(§2) (1 picture or pasted object on this page, not shown here)

[5] = tested on: Aspergillus fumigatus (strain CEA10); assay type: cell-based; settings: for activity / affinity in A. fumigatus, in words: values only in Supplementary Fig. 8 (picture not shown), 9 compared with linear PAF26 (4)
Method: The A. fumigatus (strain CEA10, source: FGSC A1163) was grown on Vogel's medium at 37 °C for 5 days before the spores (conidia) were harvested. Peptides 4–8 were incubated at different concentrations with A. fumigatus conidia to reach a final volume of 100 μl per well. The final conidia concentration was 5 × 10^5 cells ml^−1 in 10% Vogel's medium. After 24 h incubation at 37 °C in 96 well-plates, fungal growth was determined by measuring OD610nm in a spectrophotometer. IC50 values were determined using four parameter logistic regression. Data is represented as means±s.e.m from at least three independent experiments with n=3.
Antimicrobial and ha emolysis assays.
Supplementary Figure 4. Determination of IC50 values of BODIPY-labelled peptides 5- 8 in A. fumigatus. Cell viability plots and non- linear regressions for peptides 5 (A), 6 (B), 7 (C) and 8 (D).
Peptides were incubated at different concentrations with A. fumigatus conidia to r each a final volum e of 100 μ L per well. T he final conidia concentration was 5 × 10^5 cells/m L in 10% Vogel’s m edium . After 24 h incubation at 37 °C in 96 well-plates, fungal growth was determ ined by m easuring the optical densit y at 610 nm . The IC50 values were determ ined using four param eter logistic regression. Data represented as m eans ± s.e.m (n=3).
as §2

[6] = Chemical stability in human bronchoalveolar lavages; assay type: in vitro ADME; settings: human bronchoalveolar lavage from patients with acute respiratory distress syndrome, 37 °C; for remaining at 1 h, 20 μM / remaining at 3 h, 20 μM / remaining at 24 h, 20 μM: HPLC-UV (C18); for remaining at 1 h, 20 μM: read-out: chemical stability in human bronchoalveolar lavage, percentage at 1 h (measure not given); for remaining at 3 h, 20 μM: read-out: chemical stability in human bronchoalveolar lavage, percentage at 3 h (measure not given); for remaining at 24 h, 20 μM: read-out: chemical stability in human bronchoalveolar lavage, percentage at 24 h (measure not given)
Method: Peptides 5 and 8 (20 μM) were dissolved in human bronchoalveolar lavage samples (total volume: 100 μl) and incubated at 37 °C for the indicated times. Samples were injected into an high-performance liquid chromatography Agilent 1100 separations module connected to a UV detector with a Discovery C18 column (5 μm, 4.6 × 50 mm). Matrix-assisted laser desorption/ionization data was recorded on a Bruker Ultraflex mass spectrometer using sinapinic acid as the matrix.
Supplementary Figure 9 . Stability of cyclic (8) and linear (5) mono-BODIPY labelled peptid es in human bronchoalveolar lavage samples from p atients w ith acute respiratory distress synd rome.
Pept ides were incubat ed in hum an bronchoalveolar lavage sam ples at 37 °C and anal ysed b y H PLC at the tim e points indicated. Arrows point at the peak s corresponding to the intact linear peptide.
as §2

[7] = tested on: human RBCs; test: Determination of haemolytic activity; assay type: cell-based; settings: red cells of human, 1 h
Method: Erythrocytes were isolated from freshly drawn, anticoagulated human blood and diluted in PBS (1:5). An amount of 50 μl of erythrocyte suspension was added to 50 μl of compounds 4–8 at the indicated concentrations (that is, concentrations matching the IC50 values in A. fumigatus for all compounds, except for compounds 3 and 5a where a top concentration of 20 μM was used). 0.2% Triton X-100 was used as positive control and PBS as negative control. The plate was incubated at 37 °C for 1 h, each well was diluted with 150 μl of PBS and the plate was centrifuged at 1,200g for 15 min. A total of 100 μl of the supernatant from each well was transferred to a fresh plate, and the absorbance at 350 nm was measured in a microplate reader. Data is represented as % of cell viability as means from three independent experiments with n=3.
Supplementary Figure 6. Haemolytic activity of peptides 4-8 in human red blood cells (RBCs).
Peptides 4-8 and T riton X-100 (0.2% as positive control) were incubated with hum an RBCs at 37 °C and their viabilit y was assessed after 1 h. Data repres ented as m eans ± s.d. (n=3). *** for p < 0.001 was determ ined as a statis tically s ignificant difference between the c ell viabilities in PBS (phosphate buffer saline) and in T riton X-100.
as §2

[8] = conidia 5 × 10^5 cells/ml in 10% Vogel's medium, 24 h at 37 °C, OD610 nm, four parameter logistic regression, means±s.e.m., n=3, read-out: IC50 in Aspergillus fumigatus

Compound | cell viability, Escherichia coli [1] [%] | cell viability, Klebsiella pneumoniae [2] [%] | cell viability, Pseudomonas aeruginosa [3] [%] | IC50 [5, 8] [nM] | also measured
CC1=CC(C)=[N+]2C1=C(c1cccc(-c3[nH]c4ccccc4c3C[C@@H]3NC(=O)[C@H](CCCCN)NC(=O)[C@H](CCCCN)NC(=O)[C@H](CCCNC(=N)N)NC(=O)CNC(=O)[C@H](Cc4c[nH]c5ccccc45)NC(=O)[C@H](Cc4ccccc4)NC3=O)c1)c1c(C)cc(C)n1[B-]2(F)F [compound 8] (cyclo(FWGRKK[X1])) | 96 | 94 | > 99 | 2000 ± 100 | quantum yield in phospholipid membranes: 30%; cytotoxicity in human lung A549 epithelial cells, in words [4]: No significant differences; also recorded: no cytotoxicity; affinity for fungal cells compared with peptide 5 ([5]; comparison of IC50 values in A. fumigatus): around two-fold enhanced affinity; stability in human bronchoalveolar lavages, in words ([6]; after 24 h, 20 μM, HPLC-UV): remained intact; remaining at 1 h, 20 μM ([6]; peptide 20 μM): 99%; remaining at 3 h, 20 μM ([6]; peptide 20 μM): 99%; remaining at 24 h, 20 μM ([6]; peptide 20 μM): 95%
CC1=CC(C)=[N+]2C1=C(c1cccc(-c3[nH]c4ccccc4c3C[C@H](NC(=O)[C@H](C)NC(=O)[C@H](C)NC(=O)[C@H](C)N)C(=O)N[C@@H](Cc3ccccc3)C(=O)N[C@@H](Cc3c[nH]c4ccccc34)C(N)=O)c1)c1c(C)cc(C)n1[B-]2(F)F [5a] (H-AAA[X1]FW-NH2) | – | – | – | – | activity / affinity in A. fumigatus, in words [5]: poor activity
CC1=CC(C)=[N+]2C1=C(c1cccc(-c3[nH]c4ccccc4c3C[C@H](NC(=O)[C@H](CCCCN)NC(=O)[C@H](CCCCN)NC(=O)[C@@H](N)CCCNC(=N)N)C(=O)N[C@@H](C)C(=O)N[C@@H](C)C(N)=O)c1)c1c(C)cc(C)n1[B-]2(F)F [5b] (H-RKK[X1]AA-NH2) | – | – | – | – | activity / affinity in A. fumigatus, in words [5]: reduced activity
CC1=CC(C)=[N+]2C1=C(c1cccc(-c3[nH]c4ccccc4c3C[C@H](NC(=O)[C@H](Cc3ccccc3)NC(=O)[C@H](Cc3c[nH]c4ccccc34)NC(=O)[C@H](CCCCN)NC(=O)[C@H](CCCCN)NC(=O)[C@@H](N)CCCNC(=N)N)C(N)=O)c1)c1c(C)cc(C)n1[B-]2(F)F [compound 6] (H-RKKWF[X1]-NH2) | 95 | 96 | > 99 | 3000 ± 100 | –
RKKWFW-NH2 [compound 4, reference compound] | > 99 | 93 | > 99 | – | cell viability, human RBCs (haemolysis) [7]: 99%; IC50 ([5]; strain CEA10, 24 h): 7900 ± 200 nM
CC1=CC(C)=[N+]2C1=C(c1cccc(-c3[nH]c4ccccc4c3C[C@H](NC(=O)[C@H](Cc3ccccc3)NC(=O)[C@H](Cc3c(-c4cccc(C5=C6C(C)=CC(C)=[N+]6[B-](F)(F)n6c(C)cc(C)c65)c4)[nH]c4ccccc34)NC(=O)[C@H](CCCCN)NC(=O)[C@H](CCCCN)NC(=O)[C@@H](N)CCCNC(=N)N)C(N)=O)c1)c1c(C)cc(C)n1[B-]2(F)F [compound 7] | 95 | 93 | > 99 | 2500 ± 100 | –
CC1=CC(C)=[N+]2C1=C(c1cccc(-c3[nH]c4ccccc4c3C[C@H](NC(=O)[C@H](CCCCN)NC(=O)[C@H](CCCCN)NC(=O)[C@@H](N)CCCNC(=N)N)C(=O)N[C@@H](Cc3ccccc3)C(=O)N[C@@H](Cc3c[nH]c4ccccc34)C(N)=O)c1)c1c(C)cc(C)n1[B-]2(F)F [compound 5] (H-RKK[X1]FW-NH2) | 94 | 87 | > 99 | 3600 ± 100 | remaining at 1 h, 20 μM ([6]; peptide 20 μM): 49%; remaining at 3 h, 20 μM ([6]; peptide 20 μM): 2%; remaining at 24 h, 20 μM ([6]; peptide 20 μM): < 1%; half-life at 20 μM ([6]; peptide 20 μM, HPLC-UV): < 1 h
